#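 All cell lines were grown in 96-well plates and treated with compound for 48 hours. GI50 = concentration required for 50% inhibition of growth.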 Activity calls are given as the source filed them. Cut-off read from the data, not from the text of the source: active = GI50 up to about 1.1 µM and inactive = higher.
# Key:
# Assay in all cases: NCI anticancer screen, dose series, 48 h
# 786-0 = tested on: 786-0
# A498 = tested on: A498
# A549 = tested on: A549
# ACHN = tested on: ACHN
# BT-549 = tested on: BT-549
# CAKI-1 = tested on: CAKI-1
# CCRF-CEM = tested on: CCRF-CEM
# COLO 205 = tested on: COLO 205
# DU-145 = tested on: DU-145
# EKVX = tested on: EKVX
# HCC 2998 = tested on: HCC 2998
# HCT-116 = tested on: HCT-116
# HCT-15 = tested on: HCT-15
# HL-60 = tested on: HL-60
# HOP-62 = tested on: HOP-62
# HOP-92 = tested on: HOP-92
# HT-29 = tested on: HT-29
# Hs-578T = tested on: Hs-578T
# IGROV-1 = tested on: IGROV-1
# K562 = tested on: K562
# KM12 = tested on: KM12
# LOX IMVI = tested on: LOX IMVI
# M14 = tested on: M14
# MCF7 = tested on: MCF7
# MDA-MB-231 = tested on: MDA-MB-231
# MDA-MB-435 = tested on: MDA-MB-435
# MDA-N = tested on: MDA-N
# MOLT-4 = tested on: MOLT-4
# Malme-3M = tested on: Malme-3M
# NCI-H226 = tested on: NCI-H226
# NCI-H23 = tested on: NCI-H23
# NCI-H460 = tested on: NCI-H460
# NCI-H522 = tested on: NCI-H522
# NCI/ADR-RES = tested on: NCI/ADR-RES
# OVCAR-3 = tested on: OVCAR-3
# OVCAR-4 = tested on: OVCAR-4
# OVCAR-5 = tested on: OVCAR-5
# OVCAR-8 = tested on: OVCAR-8
# PC-3 = tested on: PC-3
# RPMI-8226 = tested on: RPMI-8226
# RXF 393 = tested on: RXF 393
# SF-268 = tested on: SF-268
# SF-295 = tested on: SF-295
# SF-539 = tested on: SF-539
# SK-MEL-2 = tested on: SK-MEL-2
# SK-MEL-5 = tested on: SK-MEL-5
# SN12C = tested on: SN12C
# SNB-19 = tested on: SNB-19
# SR = tested on: SR
# SW-620 = tested on: SW-620
# TK-10 = tested on: TK-10
# U-251 = tested on: U-251
# UACC-257 = tested on: UACC-257
# UACC-62 = tested on: UACC-62
# UO-31 = tested on: UO-31
# SK-MEL-28 = tested on: SK-MEL-28
# SNB-75 = tested on: SNB-75
smiles,measurement,setting,value
Nc1ccc(Oc2ccc(C3(c4ccc(Oc5ccc(N)c(O)c5)cc4)C4CC5C6CC7CC5C3C(C7)C6C4)cc2)cc1O,GI50,786-0,1.73 µM (inactive)
same,GI50,A498,2.55 µM (inactive)
same,GI50,A549,1.56 µM (inactive)
same,GI50,ACHN,1.75 µM (inactive)
same,GI50,BT-549,4.15 µM (inactive)
same,GI50,CAKI-1,2.49 µM (inactive)
same,GI50,CCRF-CEM,16 µM (inactive)
same,GI50,COLO 205,2.37 µM (inactive)
same,GI50,DU-145,1.86 µM (inactive)
same,GI50,EKVX,1.38 µM (inactive)
same,GI50,HCC 2998,1.85 µM (inactive)
same,GI50,HCT-116,1.71 µM (inactive)
same,GI50,HCT-15,2.4 µM
same,GI50,HL-60,2.44 µM (inactive)
same,GI50,HOP-62,1.73 µM (inactive)
same,GI50,HOP-92,1.77 µM (inactive)
same,GI50,HT-29,1.91 µM (inactive)
same,GI50,Hs-578T,3.13 µM (inactive)
same,GI50,IGROV-1,2.2 µM (inactive)
same,GI50,K562,2.19 µM (inactive)
same,GI50,KM12,1.86 µM (inactive)
same,GI50,LOX IMVI,2.1 µM (inactive)
same,GI50,M14,1.45 µM (inactive)
same,GI50,MCF7,1.69 µM (inactive)
same,GI50,MDA-MB-231,1.89 µM (inactive)
same,GI50,MDA-MB-435,1.53 µM (inactive)
same,GI50,MDA-N,1.36 µM (inactive)
same,GI50,MOLT-4,2.07 µM (inactive)
same,GI50,Malme-3M,3.23 µM (inactive)
same,GI50,NCI-H226,2.72 µM (inactive)
same,GI50,NCI-H23,2.47 µM (inactive)
same,GI50,NCI-H460,2.41 µM (inactive)
same,GI50,NCI-H522,1.83 µM (inactive)
same,GI50,NCI/ADR-RES,5.62 µM (inactive)
same,GI50,OVCAR-3,1.52 µM (inactive)
same,GI50,OVCAR-4,2.35 µM (inactive)
same,GI50,OVCAR-5,1.31 µM (inactive)
same,GI50,OVCAR-8,1.8 µM (inactive)
same,GI50,PC-3,1.86 µM (inactive)
same,GI50,RPMI-8226,1.63 µM (inactive)
same,GI50,RXF 393,1.7 µM (inactive)
same,GI50,SF-268,2.72 µM (inactive)
same,GI50,SF-295,2.77 µM (inactive)
same,GI50,SF-539,2.61 µM (inactive)
same,GI50,SK-MEL-2,2.36 µM (inactive)
same,GI50,SK-MEL-5,3.86 µM (inactive)
same,GI50,SN12C,1.55 µM (inactive)
same,GI50,SNB-19,3.3 µM (inactive)
same,GI50,SR,2.25 µM (inactive)
same,GI50,SW-620,2.18 µM (inactive)
same,GI50,TK-10,3.15 µM (inactive)
same,GI50,U-251,1.81 µM (inactive)
same,GI50,UACC-257,2.5 µM (inactive)
same,GI50,UACC-62,4.02 µM (inactive)
same,GI50,UO-31,2.04 µM (inactive)
CC(=O)Oc1cc(C)c(OC(C)=O)c2c1[C@H]1CC[C@]3(C)[C@@H](OC(C)=O)CC[C@H]3[C@@H]1CC2,GI50,786-0,21.8 µM (inactive)
same,GI50,A498,18.7 µM (inactive)
same,GI50,A549,17.5 µM (inactive)
same,GI50,ACHN,14.6 µM (inactive)
same,GI50,BT-549,15.9 µM (inactive)
same,GI50,CAKI-1,17.5 µM (inactive)
same,GI50,CCRF-CEM,17.9 µM (inactive)
same,GI50,DU-145,16.6 µM (inactive)
same,GI50,EKVX,13.5 µM (inactive)
same,GI50,HCC 2998,13.9 µM (inactive)
same,GI50,HCT-116,16.6 µM (inactive)
same,GI50,HCT-15,17.5 µM
same,GI50,HL-60,20 µM (inactive)
same,GI50,HOP-62,19.9 µM (inactive)
same,GI50,HOP-92,11.5 µM (inactive)
same,GI50,HT-29,17.1 µM (inactive)
same,GI50,Hs-578T,23.4 µM (inactive)
same,GI50,IGROV-1,17.1 µM (inactive)
same,GI50,K562,23.7 µM (inactive)
same,GI50,KM12,15.3 µM (inactive)
same,GI50,LOX IMVI,15.8 µM (inactive)
same,GI50,M14,16.3 µM (inactive)
same,GI50,MCF7,20.6 µM (inactive)
same,GI50,MDA-MB-231,17.1 µM (inactive)
same,GI50,MDA-MB-435,14.4 µM (inactive)
same,GI50,MDA-N,14.6 µM (inactive)
same,GI50,MOLT-4,11.6 µM (inactive)
same,GI50,Malme-3M,17.4 µM (inactive)
same,GI50,NCI-H226,> 10 µM (inactive)
same,GI50,NCI-H23,18.4 µM (inactive)
same,GI50,NCI-H460,17.7 µM (inactive)
same,GI50,NCI-H522,16.9 µM (inactive)
same,GI50,NCI/ADR-RES,18.2 µM (inactive)
same,GI50,OVCAR-3,18.2 µM (inactive)
same,GI50,OVCAR-5,21.5 µM (inactive)
same,GI50,OVCAR-8,20.5 µM (inactive)
same,GI50,PC-3,13.9 µM (inactive)
same,GI50,RPMI-8226,19.5 µM (inactive)
same,GI50,RXF 393,16.8 µM (inactive)
same,GI50,SF-268,23.3 µM (inactive)
same,GI50,SF-295,20.7 µM (inactive)
same,GI50,SF-539,19.2 µM (inactive)
same,GI50,SK-MEL-28,16.4 µM (inactive)
same,GI50,SK-MEL-5,17.5 µM (inactive)
same,GI50,SN12C,16.7 µM (inactive)
same,GI50,SNB-19,17.8 µM (inactive)
same,GI50,SNB-75,26.6 µM (inactive)
same,GI50,SR,29.8 µM (inactive)
same,GI50,SW-620,18.4 µM (inactive)
same,GI50,TK-10,16.1 µM (inactive)
same,GI50,U-251,15.9 µM (inactive)
same,GI50,UACC-257,15.8 µM (inactive)
same,GI50,UACC-62,17.7 µM (inactive)
same,GI50,UO-31,15.3 µM (inactive)

# — ChEMBL document CHEMBL1201862, “PubChem BioAssay data set” (2004)
